These results are taken from ChEMBL document CHEMBL1201862, “PubChem BioAssay data set” (2004).

The target of assay [1] is T1, High affinity choline transporter 1 (Homo sapiens, UniProt Q9GZV3).
T1 sequence (Q9GZV3 whole entry): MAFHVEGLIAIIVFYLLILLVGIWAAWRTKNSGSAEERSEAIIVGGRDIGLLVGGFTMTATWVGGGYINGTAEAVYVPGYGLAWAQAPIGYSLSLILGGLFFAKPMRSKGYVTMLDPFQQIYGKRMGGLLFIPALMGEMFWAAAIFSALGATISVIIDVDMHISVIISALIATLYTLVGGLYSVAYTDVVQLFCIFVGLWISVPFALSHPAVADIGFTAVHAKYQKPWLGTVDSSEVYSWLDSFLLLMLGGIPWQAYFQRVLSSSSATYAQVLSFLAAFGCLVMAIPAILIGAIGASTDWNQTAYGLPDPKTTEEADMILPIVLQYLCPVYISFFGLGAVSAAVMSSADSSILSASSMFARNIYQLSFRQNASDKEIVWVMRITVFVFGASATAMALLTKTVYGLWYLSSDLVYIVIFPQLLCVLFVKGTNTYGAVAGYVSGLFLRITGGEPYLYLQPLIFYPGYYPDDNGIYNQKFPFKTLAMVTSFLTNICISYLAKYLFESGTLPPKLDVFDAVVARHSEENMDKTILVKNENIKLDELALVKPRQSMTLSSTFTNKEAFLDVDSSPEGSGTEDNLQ
Nature of the assay: CHT inhibitors, dose response, cell-based, 5-point CRC, membrane potential dye (AID 504840). The class given is functional.

The target in another assay is T2, Protein skinhead-1 (Caenorhabditis elegans, UniProt P34707).
T2 sequence (P34707 whole entry): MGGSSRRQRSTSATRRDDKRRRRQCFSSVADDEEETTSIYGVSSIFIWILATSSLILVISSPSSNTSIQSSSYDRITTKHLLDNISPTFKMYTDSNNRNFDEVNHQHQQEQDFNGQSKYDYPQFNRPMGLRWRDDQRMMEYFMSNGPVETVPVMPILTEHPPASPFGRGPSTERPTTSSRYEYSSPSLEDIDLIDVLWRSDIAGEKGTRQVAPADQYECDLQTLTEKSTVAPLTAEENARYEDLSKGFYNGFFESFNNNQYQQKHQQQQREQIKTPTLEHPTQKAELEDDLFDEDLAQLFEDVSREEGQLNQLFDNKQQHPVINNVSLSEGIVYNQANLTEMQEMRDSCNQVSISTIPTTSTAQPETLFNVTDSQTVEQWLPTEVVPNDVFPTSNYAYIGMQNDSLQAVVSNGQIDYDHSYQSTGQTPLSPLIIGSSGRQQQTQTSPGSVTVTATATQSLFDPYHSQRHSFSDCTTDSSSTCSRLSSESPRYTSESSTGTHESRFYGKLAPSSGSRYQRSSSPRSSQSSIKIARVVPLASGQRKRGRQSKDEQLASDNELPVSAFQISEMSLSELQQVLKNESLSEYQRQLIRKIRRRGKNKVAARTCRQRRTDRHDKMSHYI
In kind it is functional.

Assay [2] addresses Luciferin 4-monooxygenase (Photinus pyralis, UniProt P08659). Nature of the assay: firefly luciferase enzyme inhibitors, dose response, biochemical, luminescence (AID 1891).
A short description of assay [3]: Luminescence Cell-Based Dose Confirmation HTS to Identify Inhibitors of Platelet Dense Granule Release. [Related pubchem assays: 1663 (Primary HTS), 1678 (Summary of Project)]. In kind it is functional.
The target in a further assay is Genome polyprotein (dengue virus type 2, UniProt P29990). In words: Dengue-2 NS5 methyltransferase inhibitors, primary screen, biochemical, confirmation dose response (AID 588689). In kind it is functional.
Genome polyprotein, sequence (P29990 2492-3391 limits assumed): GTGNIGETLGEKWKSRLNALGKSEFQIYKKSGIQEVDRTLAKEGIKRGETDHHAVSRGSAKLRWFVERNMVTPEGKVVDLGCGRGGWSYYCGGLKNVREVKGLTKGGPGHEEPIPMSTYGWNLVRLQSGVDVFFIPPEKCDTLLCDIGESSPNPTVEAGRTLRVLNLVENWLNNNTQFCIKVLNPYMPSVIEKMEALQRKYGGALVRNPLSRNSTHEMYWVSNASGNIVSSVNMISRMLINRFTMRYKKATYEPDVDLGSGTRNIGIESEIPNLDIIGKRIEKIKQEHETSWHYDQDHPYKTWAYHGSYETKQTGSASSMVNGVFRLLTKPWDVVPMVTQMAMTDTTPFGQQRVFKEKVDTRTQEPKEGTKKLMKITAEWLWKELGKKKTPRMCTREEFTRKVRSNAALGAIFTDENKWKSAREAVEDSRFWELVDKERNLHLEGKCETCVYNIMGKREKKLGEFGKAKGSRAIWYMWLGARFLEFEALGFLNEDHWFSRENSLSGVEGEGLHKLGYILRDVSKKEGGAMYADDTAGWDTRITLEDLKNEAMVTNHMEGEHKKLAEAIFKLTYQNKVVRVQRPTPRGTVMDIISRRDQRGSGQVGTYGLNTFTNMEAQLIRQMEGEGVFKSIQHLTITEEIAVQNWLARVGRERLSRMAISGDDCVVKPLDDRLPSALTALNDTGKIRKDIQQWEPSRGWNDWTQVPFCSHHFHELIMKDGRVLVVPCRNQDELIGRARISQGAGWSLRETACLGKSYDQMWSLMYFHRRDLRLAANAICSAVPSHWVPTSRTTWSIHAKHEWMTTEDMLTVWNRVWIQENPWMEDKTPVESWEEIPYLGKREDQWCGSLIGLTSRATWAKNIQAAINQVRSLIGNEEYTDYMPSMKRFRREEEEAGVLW
The nature of assay [4]: inhibitors of firefly luciferase expression or activity, dose response, H4 neuroglioma cells, luminescence (AID 1990). The class given is functional, cell-based.
Assay [5] is described as follows: Luminescence Cell-Based Dose Response HTS to Identify Inhibitors of 5'UTR Stem-Loop Driven Prion Protein mRNA Translation in H4 Neuroglioblastoma Cells. [Related pubchem assays: 1827 (Project Summary), 1813 (Primary HTS)]. In kind it is functional.
The nature of assay [6]: inhibitors of SNCA 5'UTR-driven reporter translation, confirmation, H4 neuroglioma cells, luminescence (AID 1988). The class given is functional, cell-based.
Assay [7] has as its target T3, RNA-binding protein pos-1 (Caenorhabditis elegans, UniProt G5EF15).
T3 sequence (G5EF15 whole entry): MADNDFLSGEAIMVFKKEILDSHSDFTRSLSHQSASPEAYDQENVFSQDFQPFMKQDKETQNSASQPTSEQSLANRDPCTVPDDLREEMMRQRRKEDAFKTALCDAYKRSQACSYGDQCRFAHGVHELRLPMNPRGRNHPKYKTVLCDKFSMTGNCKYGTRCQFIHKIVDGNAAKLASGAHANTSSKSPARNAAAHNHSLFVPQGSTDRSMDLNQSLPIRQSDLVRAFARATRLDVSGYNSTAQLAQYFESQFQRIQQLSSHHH
Nature of the assay: inhibitors of POS-1/mex-3 RNA binding, dose response, biochemical, fluorescence polarization (AID 1964).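 Further: purified POS-1 fused to maltose binding protein made in E. coli; potency of compounds blocking POS-1 binding to fluorescent RNA.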

Assay [8] deals with Streptococcus sp. 'group A'. In words: growth inhibition of control SK(-) GAS strain, dose response, counter-screen for streptokinase expression inhibitor project, luminescence, kanamycin, BacTiterGlo, confirmation (AID 1900). The class given is functional, organism-based.
The target in assay [9] is T4, Zinc finger protein mex-5 (Caenorhabditis elegans, UniProt Q9XUB2).
T4 sequence (Q9XUB2 whole entry): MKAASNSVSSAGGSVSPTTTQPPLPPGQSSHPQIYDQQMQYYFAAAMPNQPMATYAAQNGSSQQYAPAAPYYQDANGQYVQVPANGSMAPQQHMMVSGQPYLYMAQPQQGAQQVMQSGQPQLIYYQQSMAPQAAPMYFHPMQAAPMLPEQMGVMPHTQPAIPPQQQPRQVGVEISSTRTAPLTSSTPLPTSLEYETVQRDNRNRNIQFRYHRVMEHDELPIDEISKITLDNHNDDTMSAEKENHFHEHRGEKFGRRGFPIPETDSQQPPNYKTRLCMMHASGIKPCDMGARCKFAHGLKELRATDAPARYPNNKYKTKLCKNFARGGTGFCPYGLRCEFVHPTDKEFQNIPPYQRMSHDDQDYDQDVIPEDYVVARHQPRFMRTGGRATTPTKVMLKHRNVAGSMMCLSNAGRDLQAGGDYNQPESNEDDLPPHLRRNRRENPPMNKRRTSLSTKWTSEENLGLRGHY
Nature of the assay: MEX-5/TCR-2 RNA interaction inhibitors, dose response, biochemical, C. elegans, fluorescence polarization (AID 1960).

The target of another assay is T5, Streptokinase A (Streptococcus pyogenes serotype M1, UniProt P10520).
T5 sequence (P10520 whole entry): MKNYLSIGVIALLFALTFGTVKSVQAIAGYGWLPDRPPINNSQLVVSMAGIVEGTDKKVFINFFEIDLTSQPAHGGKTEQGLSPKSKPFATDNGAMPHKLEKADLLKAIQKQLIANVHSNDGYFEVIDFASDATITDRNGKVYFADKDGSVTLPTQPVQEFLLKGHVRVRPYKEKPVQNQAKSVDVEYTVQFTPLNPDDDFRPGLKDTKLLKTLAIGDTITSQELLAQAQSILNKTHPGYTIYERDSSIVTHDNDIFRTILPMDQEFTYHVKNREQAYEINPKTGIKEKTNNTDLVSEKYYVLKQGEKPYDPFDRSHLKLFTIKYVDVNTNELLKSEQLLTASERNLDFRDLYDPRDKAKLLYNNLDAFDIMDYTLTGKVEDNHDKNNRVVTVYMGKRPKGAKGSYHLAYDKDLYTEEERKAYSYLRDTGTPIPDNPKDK
In words: S. pyogenes streptokinase expression inhibitors, potency, dose response, plasminogen activation absorbance, OD405 (AID 1914).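 Further: secreted streptokinase activity via plasminogen activation per viability signal from cell pellet.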 In kind it is functional, Streptococcus pyogenes M1 GAS.

In a further assay the test system is Streptococcus. In words: Group A Streptococcus viability loss, dose response, counter-screen for streptokinase expression inhibitor project, luminescence, BacTiterGlo (AID 1915).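 Further: potency for reduction of bacterial viability or growth.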 In kind it is functional, organism-based.
The target in assay [10] is Induced myeloid leukemia cell differentiation protein Mcl-1 (Homo sapiens, UniProt Q07820). The class given is functional.
Induced myeloid leukemia cell differentiation protein Mcl-1, sequence (Q07820 whole entry): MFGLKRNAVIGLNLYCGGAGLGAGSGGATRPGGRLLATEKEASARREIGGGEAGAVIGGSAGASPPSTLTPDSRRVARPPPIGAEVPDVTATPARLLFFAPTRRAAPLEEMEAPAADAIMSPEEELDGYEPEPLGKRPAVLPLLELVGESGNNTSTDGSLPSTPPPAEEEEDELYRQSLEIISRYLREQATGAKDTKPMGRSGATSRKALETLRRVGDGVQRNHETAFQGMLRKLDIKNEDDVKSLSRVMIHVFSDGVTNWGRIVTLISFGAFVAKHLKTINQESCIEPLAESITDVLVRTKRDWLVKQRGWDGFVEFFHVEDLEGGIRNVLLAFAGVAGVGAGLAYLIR
A further assay deals with Cytochrome P450 2C19 (Homo sapiens, UniProt P33261). Nature of the assay: Cytochrome panel assay with activity outcomes. Panel member name: p450-cyp2c19 Compounds with AC50 equal or less than 10 uM are considered active. The class given is functional. The note with it: read-out: AC50.
Cytochrome P450 2C19, sequence (P33261 whole entry): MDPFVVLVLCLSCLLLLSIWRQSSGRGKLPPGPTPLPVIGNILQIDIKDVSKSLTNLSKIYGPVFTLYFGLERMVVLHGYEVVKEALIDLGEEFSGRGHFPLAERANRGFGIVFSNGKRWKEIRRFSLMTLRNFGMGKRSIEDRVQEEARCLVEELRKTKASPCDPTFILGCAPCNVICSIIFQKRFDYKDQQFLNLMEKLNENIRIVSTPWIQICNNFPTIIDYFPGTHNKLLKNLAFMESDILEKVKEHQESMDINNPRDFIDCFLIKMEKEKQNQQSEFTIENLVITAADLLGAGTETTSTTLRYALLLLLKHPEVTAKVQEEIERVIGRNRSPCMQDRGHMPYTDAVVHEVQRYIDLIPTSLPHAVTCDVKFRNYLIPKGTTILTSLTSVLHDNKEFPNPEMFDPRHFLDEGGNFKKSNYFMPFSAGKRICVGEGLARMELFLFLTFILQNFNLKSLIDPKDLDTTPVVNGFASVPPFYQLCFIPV
The target of assay [11] is T6, Rac GTPase-activating protein 1 (Homo sapiens, UniProt Q9H0H5).
T6 sequence (Q9H0H5 whole entry): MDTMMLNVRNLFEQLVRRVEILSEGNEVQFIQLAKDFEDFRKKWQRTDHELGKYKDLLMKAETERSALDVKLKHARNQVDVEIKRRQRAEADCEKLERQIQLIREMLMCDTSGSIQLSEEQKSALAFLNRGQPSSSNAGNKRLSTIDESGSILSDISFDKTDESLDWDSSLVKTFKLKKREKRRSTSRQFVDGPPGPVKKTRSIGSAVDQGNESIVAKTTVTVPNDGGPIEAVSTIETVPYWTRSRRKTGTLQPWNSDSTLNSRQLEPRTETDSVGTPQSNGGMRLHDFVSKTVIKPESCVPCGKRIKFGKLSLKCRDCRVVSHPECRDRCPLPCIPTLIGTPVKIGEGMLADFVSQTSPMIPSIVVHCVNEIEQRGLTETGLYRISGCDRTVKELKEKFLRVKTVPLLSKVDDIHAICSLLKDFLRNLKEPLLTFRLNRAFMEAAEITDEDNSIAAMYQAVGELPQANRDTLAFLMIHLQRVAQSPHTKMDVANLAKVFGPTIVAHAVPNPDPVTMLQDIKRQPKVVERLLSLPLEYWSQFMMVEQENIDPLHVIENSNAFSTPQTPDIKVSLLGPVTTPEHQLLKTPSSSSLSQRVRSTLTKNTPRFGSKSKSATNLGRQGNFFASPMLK
In words: MgcRacGAP GTPase-activating activity inhibitors, confirmation, biochemical, ADP Hunter fluorescence, primary and confirmatory (AID 624330). The class given is functional.

A further assay relates to H9c2. In words: cells. As to conditions: Rattus norvegicus, H9c2, Myocardium. In kind it is functional, cell-based.

Calls of active or inactive are those of the source. Bounds are passed on as bounds.

Luciferin 4-monooxygenase, sequence (P08659 whole entry): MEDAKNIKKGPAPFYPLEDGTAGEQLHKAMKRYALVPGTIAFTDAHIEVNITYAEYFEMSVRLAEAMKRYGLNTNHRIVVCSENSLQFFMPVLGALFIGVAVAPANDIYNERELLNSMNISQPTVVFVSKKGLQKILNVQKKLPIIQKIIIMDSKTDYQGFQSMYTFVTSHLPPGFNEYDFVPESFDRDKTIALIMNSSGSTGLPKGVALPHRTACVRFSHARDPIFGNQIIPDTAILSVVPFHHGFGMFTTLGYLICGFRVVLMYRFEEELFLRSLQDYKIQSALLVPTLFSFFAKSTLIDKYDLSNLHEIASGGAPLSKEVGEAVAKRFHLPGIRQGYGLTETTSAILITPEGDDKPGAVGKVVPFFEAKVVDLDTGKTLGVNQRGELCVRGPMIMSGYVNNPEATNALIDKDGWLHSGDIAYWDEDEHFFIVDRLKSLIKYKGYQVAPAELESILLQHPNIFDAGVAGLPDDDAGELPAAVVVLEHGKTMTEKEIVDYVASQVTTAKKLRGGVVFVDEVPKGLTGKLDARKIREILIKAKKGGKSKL

On to `Cc1ccc(C(=O)Nc2ncc([N+](=O)[O-])s2)cc1`, for which the results for the IC50 (in assay [1]; on Protein skinhead-1) were 10.5 µM (active) and > 100 µM (inactive), respectively.

For the compound `CCOC(=O)Cc1sc(N)nc1C`, the EC50 in assay [2] and in assay [3] was > 112 µM (not active) each time.

For `CCOc1ccc(/C=C/c2nc(O)nc(O)c2[N+](=O)[O-])cc1`, the IC50 at Genome polyprotein was 45.9 µM (active).

Regarding `Cc1csc(NC(=O)c2ccco2)n1`, the EC50 is > 112 µM (not active) in [2] and 20.1 µM (active) in [3].

In the case of `COc1ccc(C(=O)N(C)C2CCCc3ccccc32)cc1OC1CCN(C(C)C)CC1` (stereo unspecified), the IC50 in [1] is 12.6 µM (active).

On to `Cc1ccc(N2NC(=O)/C(=C/c3ccc(-c4ccc(Cl)c(C(=O)O)c4)o3)C2=O)cc1C`, for which the IC50 on Genome polyprotein is 79.1 µM (active).

As to `c1ccc2nc(-c3ccc(N4CCOCC4)cc3)ccc2c1`, the EC50 in assay [4] is 4.01 µM (inconclusive); in assay [5] it was 0.757 µM (active); in [6], 0.413 µM (inconclusive); in assay [2] it was 0.793 µM (active); in assay [3], 3.7 µM (active).

Regarding `CSC1=NSC2=NC(=O)/C(=C\c3c[nH]c4ccccc34)C(=N)N12`, the EC50 in assay [7] was > 300 µM (inconclusive); in assay [8], 1.95 µM (active); in assay [9], 17.9 µM (inconclusive); at Streptokinase A, > 150 µM (not active); with Streptococcus, > 150 µM (not active). Besides, the IC50 on Genome polyprotein was > 100 µM (active).

As to `CCOC(=O)N1CCN(C(=O)CCCN2C(=O)CSc3nc(C)cc(C)c32)CC1`, the EC50 in assay [2] and in [3] was > 112 µM (not active) throughout.

For `COc1ccc(/C=N/Nc2nccnc2Cl)c(OC)c1`, the values for the EC50 in [2] and in [3] were 6.55 µM (active) and 2.65 µM (active), respectively.

For `CCCCCc1nc2sc3c(c2c(=O)n1N)CCC3`, the EC50 in assay [2] and in assay [3] was > 112 µM (not active) each time.

Turning to `CN(C)c1ccc(NC(=O)c2cccc(N3C(=O)C4C5C=CC(C5)C4C3=O)c2)cc1` (stereo unspecified), the IC50 in assay [10] was 1.89 µM (not active); in assay [11] it was 49.2 µM (active). Further, the AC50 at Cytochrome P450 2C19 is 25.1 µM (inconclusive).

Turning to `COc1ccc(/C=C2/C(=O)NC(=O)N(c3ccccc3)C2=O)cc1CN1C(=O)c2ccccc2C1=O`, at Genome polyprotein, the 50% inhibitory concentration (IC50) was 73.9 µM (active).

For `CCOc1cccc2cc(C(=O)NCc3cccnc3)c(=O)oc12`, the EC50 in assay [2] and in assay [3] was > 112 µM (not active) throughout.

As for `O=c1cc(COc2ncnc3c(Cl)cc(Cl)cc23)nc2sccn12`, the EC50 in [2] and in assay [3] was > 112 µM (not active) in each case. In addition, the IC50 in the assay on H9c2 was > 79 µM (inactive).

Regarding `CC(=O)Nc1ccc(C(=O)N(C)c2ccccc2)cc1`, the EC50 in assay [2] and in assay [3] was > 112 µM (not active) throughout.

In the case of `COc1cc(/C=N/c2cccc(C)c2)c(O)c([N+](=O)[O-])c1`, the IC50 in assay [1] was 13.2 µM (active).

With `CCc1cc2c(N3CCN(c4nnc(CC)s4)CC3)ncnc2s1`, the IC50 in assay [1] is 3.63 µM (active).

With `CCOc1ccc(S(=O)(=O)NCCC(=O)N2CCCN(C)CC2)cc1`, the EC50 in assay [2] and in assay [3] was > 112 µM (not active) each time.
